Results from US5120729A, “Beta-lactams as antihypercholesterolemics” (Merck & Co., Inc., priority 1990, dated 1992).

Target: T1, HMG-CoA synthase (Rattus norvegicus, UniProt P17425)
T1 construct: The livers from male Charles River CD rats (225-350 g) were homogenized; from tissue; host or cells: rat liver (male Charles River CD rats), 100,000×g supernatant, ammonium sulfate precipitate, DEAE-52 fraction
T1 sequence (P17425 1-520): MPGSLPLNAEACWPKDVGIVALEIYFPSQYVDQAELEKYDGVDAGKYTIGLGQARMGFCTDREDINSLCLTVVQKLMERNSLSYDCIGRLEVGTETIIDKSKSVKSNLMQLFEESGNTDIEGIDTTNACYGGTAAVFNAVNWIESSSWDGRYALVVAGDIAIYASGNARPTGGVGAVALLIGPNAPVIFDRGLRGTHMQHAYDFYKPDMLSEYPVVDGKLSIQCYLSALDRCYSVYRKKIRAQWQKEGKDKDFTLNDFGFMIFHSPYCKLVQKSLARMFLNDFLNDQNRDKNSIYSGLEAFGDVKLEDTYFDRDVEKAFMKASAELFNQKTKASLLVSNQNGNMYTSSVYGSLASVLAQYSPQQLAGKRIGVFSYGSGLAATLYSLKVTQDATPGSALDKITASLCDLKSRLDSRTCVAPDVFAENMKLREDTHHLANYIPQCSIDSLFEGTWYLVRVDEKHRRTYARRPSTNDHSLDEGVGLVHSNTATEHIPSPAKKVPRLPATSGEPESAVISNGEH
Assay: HMG-CoA synthase inhibition assay
Format: biochemical
Procedure: The intrinsic HMG-CoA synthase inhibition activity of the compounds of this invention is measured by the standard in vitro protocol described below:
The livers from male Charles River CD rats (225-350 g) were homogenized in 0.25M sucrose which was adjusted with phenylmethylsulfonylfluoride (PMSF) and N-p-tosyl-l-lysine chloromethyl ketone (TLCK) so that the final concentration of each was […], respectively. The homogenate was centrifuged at 15,000×g for 20 minutes, the supernatant filtered through a fine nylon screen to remove most of the fat layer and recentrifuged at 100,000×g for 1 hour. This supernatant was removed and 1M potassium phosphate, dithiothreitol (DTT) and ethylene glycolbis(β-aminoethyl ether)-N,N,N',N'-tetraacetic acid (EGTA) added to give a final concentration of 0.1M (pH 7.2), 0.5 mM and 0.1 mM, respectively. Solid ammonium sulfate was added to 50% saturation to the protein solution, it was centrifuged at 15,000×g and the supernatant discarded. This precipitated protein could be stored at -70° C. for at least one month with very little loss of activity. The ammonium sulfate precipitate was dissolved in an minimal amount of 0.06M potassium phosphate buffer (pH 7.2) containing 0.5 mM dithiothreitol and 0.1 mM EGTA (referred to as 0.06M phosphate buffer) and dialyzed overnight against 2 liters of the same buffer to remove the ammonium sulfate and to inactivate HMG-CoA lyase [Clinkenbeard, et al., J. Biol. Chem. 250, 3108-3116(1975)].
The dialyzed extract was added to a column of DEAE-52 (Whatman) which had been equilibrated with 0.06M phosphate buffer (10 mg of protein to 1 ml bed volume of the resin). The DEAE-cellulose was eluted with 0.06M phosphate buffer until the optical density at 280 nm was essentially zero. This fraction contained the β-ketoacetyl-CoA thiolase activity. The HMG-CoA synthase was eluted from the column with 0.1M phosphate buffer (pH 7.2) containing 0.5 mM DTT and 0.1 mM EGTA, and was virtually free of all thiolase activity. The protein was precipitated by the addition of ammonium sulfate to give 50% saturation. This solution was stirred for 10 minutes at 4° C. and the precipitate collected by centrifugation at 15,000 rpm for 10 minutes. The supernatant was discarded and the precipitate dissolved in a minimum of 0.06M phosphate buffer, pH 7.2 (about 10 ml) and the enzyme stored at -80° C.
HMG-CoA Synthase Inhibition Assay
Enzyme protein (ca. 24 mg) was added to a solution containing […] (pH 8.0), 11.7 μM MgCl2, 1.17 μM ethylenediaminetetraacetic acid (EDTA), 0.58 μM dithiothreitol, and the indicated concentrations of the test compound (added as a 2 mg/ml solution in dimethylsulfoxide). The incubation took place in a volume of 0.085 ml at 30° in a shaking water bath. After 5 minutes, […] of a solution containing acetoacetyl-CoA and 0.1 μCi of 1-[^14 C]-acetyl-CoA was added to give a final concentrations of 0.1 and 0.4 μM, respectively. The incubation was continued for 10 more minutes and the reaction stopped by the addition of […] of the assay mixture to 0.2 ml of 6N HCl in a glass scintillation vial. The vial was heated for 1 hour at 120° after which time 0.2 ml more of 6N HCl was again added to each vial and the heating continued for another hour. Following this, 1.0 ml of 0.9% saline was added to each vial and finally 10 ml of scintillation liquid. Radioactivity was determined in a Packard Tri-Carb liquid scintillation counter.
Percent inhibition is calculated by the formula: [formula]
IC50 values were determined by plotting the log of the concentration of the test compound verses the percentage inhibition and fitting a straight line to the resulting data by using the least squares method.

[1] = Table II, n is 1, R3 is C1-5 alkyl
[2] = Table IV, n is 2, R3 is CH3CH2 or CH3OCH2

## COC(=O)c1ccc(OCCC2CC(=O)N2S(=O)(=O)c2ccc(C)cc2)cc1 (racemic) [Table III i), (±)-4-(2-p-Methoxycarbonylphenoxy)ethyl-N-toluenesulfonyl-2-azetidinone]
Table III, n is 2, R3 is H
  IC50: 0.066 µM

## Cc1ccc(S(=O)(=O)N2C(=O)CC2CCOCc2ccccc2)cc1 (racemic) [Table III ii), (±)-4-(2-Benzyloxy)ethyl-N-toluenesulfonyl-2-azetidinone]
Table III, n is 2, R3 is H
  IC50: 0.09 µM

## Cc1ccc(S(=O)(=O)N2C(=O)CC2CCOC(c2ccccc2)c2ccccc2)cc1 (racemic) [Table III iii), (±)-4-(2-Diphenylmethoxy)ethyl-N-toluenesulfonyl-2-azetidinone]
Table III, n is 2, R3 is H
  IC50: 0.061 µM

## CC[C@@H]1C(=O)N(S(=O)(=O)c2ccc(C)cc2)[C@@H]1CSc1ccccc1 (relative stereo) [Table II i)]
[1]
  IC50: 0.12 µM

## CC[C@@H]1C(=O)N(S(=O)(=O)c2ccc(C)cc2)[C@@H]1COC (relative stereo) [Table II ii), (±)-cis-3-Ethyl-4-methoxymethyl-N-toluenesulfonyl-2-azetidinone]
[1]
  IC50: 0.067 µM

## CC[C@@H]1C(=O)N(S(=O)(=O)c2ccc(C)cc2)[C@@H]1CF (relative stereo) [Table II iii), (±)-cis-3-Ethyl-4-fluoromethyl-N-toluenesulfonyl-2-azetidinone]
[1]
  IC50: 0.06 µM

## CC[C@@H]1C(=O)N(S(=O)(=O)c2ccc(C)cc2)[C@@H]1CCOc1ccc(C(=O)OC)cc1 (relative stereo) [Table IV i), (±)-cis-3-Ethyl-4-(2-p-methoxycarbonylphenoxy)ethyl-N-toluenesulfonyl-2-azetidinone]
[2]
  IC50: 0.065 µM

## COC[C@H]1C(=O)N(S(=O)(=O)c2ccc(C)cc2)[C@@H]1CCOc1ccc(C(=O)OC)cc1 (relative stereo) [Table IV ii)]
[2]
  IC50: 1.4 µM

## CC[C@@H]1C(=O)N(S(=O)(=O)c2ccc(C)cc2)[C@@H]1CCS(=O)(=O)c1ccccc1 (relative stereo) [Table IV iii), (±)-3-Ethyl-4-(2-phenylsulfonyl)ethyl-N-toluenesulfonyl-2-azetidinone]
[2]
  IC50: 0.64 µM

## Cc1ccc(S(=O)(=O)N2C(=O)C[C@H]2CSc2ccccc2)cc1 [Table I i), (4S)-4-Thiophenoxymethyl-N-toluenesulfonyl-2-azetidinone]
Table I, n is 1, R3 is H
  IC50: 0.07 µM

## Cc1ccc(S(=O)(=O)N2C(=O)C[C@H]2C[S+]([O-])c2ccccc2)cc1 (stereo partly drawn) [Table I ii)]
Table I, n is 1, R3 is H
  IC50: 0.12 µM

## Cc1ccc(S(=O)(=O)N2C(=O)C[C@H]2CS(=O)(=O)c2ccccc2)cc1 [Table I iii), (4S)-4-Phenylsulfonymethyl-N-toluenesulfonyl-2-azetidinone]
Table I, n is 1, R3 is H
  IC50: 0.12 µM

## COC(=O)c1ccc(OC[C@@H]2CC(=O)N2S(=O)(=O)c2ccc(C)cc2)cc1 [Table I iv), (4S)-4-p-Methoxycarbonylphenoxymethyl-N-toluenesulfonyl-2-azetidinone]
Table I, n is 1, R3 is H
  IC50: 0.046 µM

## Cc1ccc(S(=O)(=O)N2C(=O)C[C@H]2CI)cc1 [Table I v)]
Table I, n is 1, R3 is H
  IC50: 0.82 µM

## COC(=O)c1ccc(OCCCC2CC(=O)N2S(=O)(=O)c2ccc(C)cc2)cc1 (stereo not drawn) [Table V i)]
Table V, n is 3, R3 is H
  IC50: 0.19 µM

## Cc1ccc(S(=O)(=O)N2C(=O)CC2CCCOc2ccccc2)cc1 (stereo not drawn) [Table V ii)]
Table V, n is 3, R3 is H
  IC50: 0.14 µM

## Cc1ccc(S(=O)(=O)N2C(=O)CC2CCCBr)cc1 (stereo not drawn) [Table V iii)]
Table V, n is 3, R3 is H
  IC50: 0.13 µM

## COCC1C(=O)N(S(=O)(=O)c2ccc(C)cc2)C1CCCCC(C)CC(C)=CC(C)=CC(=O)OC [Table VI i), (3R,4R,5'R)-(E,E)-3-Methoxymethyl-4-(10'-methoxycarbonyl-5',7',9'-trimethyl-7',9'-decadienyl)-N-toluensulfonyl-2-azetidinone]
Table VI, n is 4
  IC50: 3.6 µM
